For assay [1], the system named is KRAS. Kind of assay: KRAS mRNA expression by Endpoint PCR / qRT-PCR in cancer cell lines. The assay is classed as cell-based, human. To be noted: for KRAS expression: HCT116 cells, comparison with other CDK inhibitors. The method, then: (§1) In order to confirm the effect of inhibiting KRAS expression by GW8510, a human colon cancer cell line HCT116 with a KRAS G13D mutation, a human prostate cancer cell line PC-3 with a KRAS G13D mutation, a human breast cancer cell line MCF7 as a KRAS wild-type cell line, a human pancreatic cancer cell line MIA PaCa-2 with a KRAS G12C mutation, and a human pancreatic cancer cell line PANC-1 with a KRAS G12D mutation were dispensed in a 6-well plate, and treated with GW8510 at 0, 1, 5 or 10 μM of concentration for 3, 6, 24 or 48 hours. Thereafter, RNA was extracted from the cells using a TRIzol™ Reagent (Thermo Fisher Scientific Inc., USA) and then cDNA was synthesized using M-MLV reverse-transcriptase (ELPIS Biotech, Korea), 2.5 mM dNTP (TransGen Biotech, China), and oligo dT15 (bioneer, Korea). Endpoint PCR was performed using an Endpoint PCR solution mixed with the synthesized cDNA, Taq polymerase master mix, and primers shown in Table 1 below, and a QuantStudio 3 Real-Time PCR Instrument (Thermo Fisher Scientific Inc., USA). Thereafter, the mRNA level of KRAS was confirmed by loading the Endpoint PCR solution on an agarose gel. In addition, the mRNA levels of nuclear transcription factor Y (NYFA) and X-linked inhibitor of apoptosis protein (XIAP) as a protein of inhibiting apoptosis, were also confirmed together with KRAS.
(§2) A colon cancer cell line HCT116 (KRAS G13D mut), pancreatic cancer cell lines PANC-1 (KRAS G12D mut) and MIA PaCa-2 (KRAS G12C mut), and a breast cancer cell line MCF7 (KRAS wt) were dispensed in a 6-well plate, and treated with GW8510 at 0, 1, 5 or 10 μM of concentration for 24 hours, and then Endpoint PCR was performed. In addition, a qRT-PCR solution was prepared by mixing SYBR Green Master Mix, the cDNA of Example 2-1, and the primers in Table 1, and qRT-PCR was performed with QuantStudio 3 Real-Time PCR Instrument (Thermo Fisher Scientific Inc., USA) to quantify the gene expression levels. In addition, the phenotypes of the cancer cell line were observed by treatment of GW8510 by using the colon cancer cell line HCT116 treated with GW8510 at 0 or 10 μM of concentration for 24 hours, and the protein expression levels of pan ras, K-ras, and β-actin were measured by immunoblot. Specifically, the colon cancer cell line HCT116 treated with GW8510 at 0 or 10 μM of concentration for 24 hours was lysed with an RIPA buffer (Curebio, Korea), and then the cell lysate was centrifuged and the supernatant was taken. The cell lysate supernatant was added with a 5×SDS sample buffer and then boiled for 10 minutes, and electrophoresis was performed using a 12% SDS polyacrylamide gel. After electrophoresis, a protein was transferred to a PVDF membrane and then blocked with 5% skim milk (TBS-T) at room temperature for 1 hour. Thereafter, primary antibodies (anti-pan ras, anti-K-ras, and anti-β-actin) diluted in a blocking solution at 1:1000 were added and incubated at 4° C. overnight, and then a membrane was washed three times with 0.05% TBS-T, and a secondary antibody (horseradish peroxidase-conjugated 2nd Ab) diluted at 1:10000 was added and incubated for 1 hour at room temperature. The membrane was washed three times with 0.05% TBS-T, developed with an enhanced chemiluminescence (ECL) solution, and exposed to an X-ray film.
(§3) To determine whether the inhibition of KRAS by GW8510 was regulated through Cdk2 inhibition, HCT116 cells were treated with other CDK inhibitors, such as PKC inhibitor H7, Cdk2 inhibitor CVT-313, and Cdk4/6 inhibitor PD0332991, other than GW8510 (Cdk2 inhibitor) for 24 hours, respectively, and then to analyze the cell cycle, the cells were subjected to PI staining and confirmed by flow cytometry, and the KRAS expression levels were confirmed by Endpoint PCR and qRT-PCR.

The next assay deals with HCT116 cells. As to the kind of experiment: Cell cycle analysis by PI staining and flow cytometry. The assay is classed as cell-based, human. To be noted: 24 hours, PI staining flow cytometry. As for the experimental part:
as §3
On the technique in general: In flow cytometry, cells or beads pass a laser one at a time.

The subject of assay [2] is KRAS. As to the kind of experiment: KRAS protein expression by immunoblot. The assay is classed as cell-based, human. Particulars: HCT116, GW8510 0 or 10 μM, 24 hours. The method, then:
as §2, with “After electrophoresis, a protein was transferred to a PVDF membrane and then blocked with 5% skim milk (TBS-T) at room temperature for 1 hour. Thereafter, primary antibodies (anti-pan ras, anti-K-ras, and anti-β-actin) diluted in a blocking solution at 1:1000 were added and incubated at 4° C. overnight, and then a membrane was washed three times with 0.05% TBS-T, and a secondary antibody (horseradish peroxidase-conjugated 2nd Ab) diluted at 1:10000 was added and incubated for 1 hour at room temperature. The membrane was washed three times with 0.05% TBS-T, developed with an enhanced chemiluminescence (ECL) solution, and exposed to an X-ray film.” left out

For another assay, the system named is HCT116 cells xenograft. Kind of assay: HCT116 xenograft model in nude mice, tumor size. Format: in vivo, Balb/c nude mice. Particulars: GW8510 10 mg/kg i.p. three times a week, cetuximab 1 mg/mouse i.p. once a week. The method, then:
Experimental animals used were 36 6-week-old Balb/c nude mice. The experimental diet and drinking water were taken freely, and all experimental diets were stored in a refrigerator during a breeding period. The mice were pre-bred with regular feed to be adapted to a breeding environment for 7 days before the start of the experiment and then divided into a total of 4 groups. […] In all mice, HCT116 cells were injected with 1×10^6 S.C. at 7 weeks of age to prepare a xenograft model. […] The tumor size was measured using Equation of (long axis×short axis×short axis)/2 and measured three times a week at the same time.

For a further assay, the system named is XIAP. Kind of assay: XIAP mRNA expression by Endpoint PCR in cancer cell lines. Format: cell-based, human. As for the experimental part: as §1
A further assay deals with NFYA. Kind of assay: NFYA mRNA expression by Endpoint PCR in cancer cell lines. The assay is classed as cell-based, human. The method, then: as §1
[3] abbreviates: 24 hours, Endpoint PCR and qRT-PCR.
Where [4] appears, read: all of the cell lines (HCT116, PC-3, MCF7, MIA PaCa-2, PANC-1).

As to `COc1ccc(CNc2nc(N(CCO)CCO)nc3c2ncn3C(C)C)cc1` [CVT-313, reference compound], in the assay on KRAS [1] (setting [3]), the KRAS expression result was “no change in KRAS expression”. The cell cycle result in the assay on HCT116 cells is on record as “arrested in the GO/G1 phase”.
Regarding `O=C1Nc2ccc3ncsc3c2/C1=C/Nc1ccc(S(=O)(=O)Nc2ccccn2)cc1` [GW8510], the KRAS transcription level entry in the assay on KRAS [1] (HCT116, PANC-1, MIA PaCa-2 and MCF7, GW8510 0, 1, 5 or 10 μM, 24 hours, Endpoint PCR and qRT-PCR) was “significantly reduced”. The KRAS expression entry with KRAS [1] (setting [3]) is on record as “inhibited the KRAS expression”. Moreover, the “mRNA expression level of KRAS” value in the assay on KRAS [1] (HCT116 colon cancer cells (KRAS G13D), GW8510 0, 1, 5 or 10 μM, 3, 6, 24 or 48 hours, effect from 6 hours, Endpoint PCR) is listed as “decreased in a concentration-dependent manner”. The “KRAS mRNA level” value is listed as “also reduced” with KRAS [1] (MCF7 breast cancer cells (KRAS wild-type), Endpoint PCR); “decreased” with KRAS [1] (MIA PaCa-2 pancreatic cancer cells (KRAS G12C), Endpoint PCR); “decreased” in the assay with KRAS [1] (PANC-1 pancreatic cancer cells (KRAS G12D), Endpoint PCR); “decreased” in the assay with KRAS [1] (PC-3 prostate cancer cells (KRAS G13D), Endpoint PCR). Further, the KRAS protein level result in the assay on KRAS [2] is “also decreased”. The tumor size entry with HCT116 cells xenograft was “tended to decrease compared to the control group”. For the same compound, the “mRNA expression level of XIAP” value with XIAP (HCT116 cells (KRAS G13D)) was “also decreased”. In addition, in the assay with XIAP (setting [4]), the “mRNA level of XIAP” value is “also decreased”. Besides, the “mRNA expression level of NFYA” value in the assay with NFYA (HCT116 cells (KRAS G13D)) is “also decreased”. For the same compound, the “mRNA level of NFYA” value in the assay with NFYA (setting [4]) is “also decreased”.
On to `CC1CNCCN1S(=O)(=O)c1cccc2cnccc12` (stereo not shown) [H7, reference compound], for which the KRAS expression entry with KRAS [1] (setting [3]) is reported as “no change in KRAS expression”. The cell cycle result in the assay on HCT116 cells is “arrested in the GO/G1 phase”.
The like results for `CC(=O)c1c(C)c2cnc(Nc3ccc(N4CCNCC4)cn3)nc2n(C2CCCC2)c1=O` [PD0332991, reference compound] were, in that order, “no change in KRAS expression” and “arrested in the GO/G1 phase”.

The values above are taken from patent publication US20240325363A1, “COMPOSITION FOR TREATMENT OF ANTICANCER AGENT-RESISTANT CANCER” (ONCOCROSS CO.,LTD., priority 2021, published 2024).
